# Legend:
# p38 MAP Kinase a = target: T1, p38 MAP Kinase a (Homo sapiens, UniProt Q16539); assay: p38 MAP Kinase activity, radiometric filter-binding assay (Upstate); assay type: biochemical; settings: IC50 range; ATP at or close to Km; read-out: Inhibitor activity versus p38 MAPKa
# T1 construct: purchased Upstate (Dundee UK)
# Outline: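 Human p38 MAP kinase α (5-10 mU) with 0.33 mg/mL myelin basic protein, 25 mM Tris pH 7.5, 0.002 mM EGTA, 10 mM Mg acetate and [γ-33P]ATP at or near Km; 40 min at RT. Phosphoric acid stop, P30 filter binding and scintillation counting; IC50 from 9-step ⅓-log dilutions from 10 μM top concentration, duplicates.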
# [1] = system: human whole blood TNFα release; assay: LPS-stimulation of human whole blood, TNF-α by ELISA; assay type: cell-based; settings: IC50 range, LPS 100 ng/ml, 6 hrs, read-out: Inhibitor activity versus human whole blood TNFα release
# Experimental: Whole blood was taken by venous puncture using heparinised vacutainers (Becton Dickinson) and diluted in an equal volume of RPMI 1640 tissue culture media (Sigma). 100 μl was plated in V-bottomed 96 well tissue culture treated plates. 2 hrs after the addition of the inhibitor in 100 μl of RPMI 1640 media, the blood was stimulated with LPS (E. coli strain 005:B5, Sigma) at a final concentration of 100 ng/ml and incubated at 37° C. in 5% CO2 for 6 hrs. TNF-α levels were measured from cell-free supernatants by sandwich ELISA (R&D Systems #QTA00B)
# THP-1 TNFα release = assay: LPS-stimulation of THP-1 cells, TNF-α by ELISA; assay type: cell-based; settings: Homo sapiens, THP-1; IC50 range; LPS 1 μg/ml, 6 hrs; read-out: Inhibitor activity versus THP-1 TNFα release
# Outline: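 THP-1 cells (4×10^4/well) rested 16 h, preincubated 2 h with inhibitor, then stimulated with 1 μg/ml E. coli LPS for 6 h at 37 °C, 5% CO2. TNF-α quantified in cell-free supernatants by sandwich ELISA.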
# T1 sequence (Q16539 whole entry): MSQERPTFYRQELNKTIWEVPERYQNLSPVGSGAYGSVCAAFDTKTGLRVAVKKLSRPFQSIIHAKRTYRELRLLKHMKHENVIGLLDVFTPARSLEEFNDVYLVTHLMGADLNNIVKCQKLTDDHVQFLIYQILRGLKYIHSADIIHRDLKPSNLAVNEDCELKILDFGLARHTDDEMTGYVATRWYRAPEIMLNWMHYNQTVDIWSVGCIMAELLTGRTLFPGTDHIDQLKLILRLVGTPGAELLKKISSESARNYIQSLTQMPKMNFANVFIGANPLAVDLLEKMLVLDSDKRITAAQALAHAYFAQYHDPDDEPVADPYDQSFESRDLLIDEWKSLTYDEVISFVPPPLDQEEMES
IC50 (p38 MAP Kinase a) [µM],IC50 [1] [µM],IC50 (THP-1 TNFα release) [µM],SMILES
0.1 to 1,> 1,0.1 to 1,"CC(C)C[C@H](NCCCc1ccc(-n2c(N)c(C(=O)c3ccc(F)cc3)ccc2=O)cc1)C(=O)OC1CCCC1 [Example 67, Cyclopentyl N-[3-(4-{6-amino-5-[(4-fluorophenyl)carbonyl]-2-oxopyridin-1(2H)-yl}phenyl)propyl]-L-leucinate]"
< 0.1,> 1,< 0.1,"Nc1c(C(=O)c2ccc(F)cc2F)ccc(=O)n1-c1c(F)cc(OCCCN[C@@H](Cc2ccccc2)C(=O)OC2CCCC2)cc1F [Example 21, Cyclopentyl(S)-2-(3-{4-[6-Amino-5-(2,4-difluorobenzoyl)-2-oxo-2H-pyridin-1-yl]-3,5-difluorophenoxy}-propylamino)-3-phenyl propionate]"
< 0.1,0.1 to 1,< 0.1,"CC(C)C[C@H](NCCCCCOc1cc(F)c(-n2c(N)c(C(=O)c3ccc(F)cc3F)ccc2=O)c(F)c1)C(=O)OC1CCCC1 [Example 53, Cyclopentyl N-(5-{4-[6-amino-5-(2,4-difluorobenzoyl)-2-oxopyridin-1(2H)-yl]-3,5-difluorophenoxy}pentyl)-L-leucinate]"
< 0.1,> 1,0.1 to 1,"CC(C)C[C@H](NCc1ccc(-n2c(N)c(C(=O)c3ccc(F)cc3F)ccc2=O)cc1)C(=O)OC1CCCC1 [Example 9, Cyclopentyl(S)-2-{4-[6-Amino-5-(2,4-difluorobenzoyl)-2-oxo-2H-pyridin-1-yl]benzylamino}-4-methylpentanoate]"
< 0.1,> 1,< 0.1,"CC(C)C[C@H](NCCCOc1cc(F)c(-n2c(N)c(C(=O)c3ccc(F)cc3F)ccc2=O)c(F)c1)C(=O)OC(C)(C)C [Example 38, tert-Butyl(S)-2-(3-{4-[6-Amino-5-(2,4-difluorobenzoyl)-2-oxo-2H-pyridin-1-yl]-3,5-difluorophenoxy}propylamino)-4-methyl pentanoate]"
